pKd: −log10 of the molar value. Where two headings read alike, the source gives them in different places. Where a SMILES comes first, the peptide text is derived from it. Bridges are numbered along the chain shown (N, C = ends). [ ]: non-standard residue; d: D form. The star is where a group is joined. hPhe(3,5-F2-4-CF3) = N[C@@H](CCc1cc(F)c(C(F)(F)F)c(F)c1)C(=O)O; hPhe(3-Cl-4-CF3) = N[C@@H](CCc1ccc(C(F)(F)F)c(Cl)c1)C(=O)O; NPrPhe(4-CF3) = CCCN[C@@H](Cc1ccc(C(F)(F)F)cc1)C(=O)O; NMeGly(cPent) = CN[C@H](C(=O)O)C1CCCC1; Pro(4,4-F2) = O=C(O)[C@@H]1CC(F)(F)CN1; Hyp = O=C(O)[C@@H]1C[C@@H](O)CN1; NMeD = CN[C@@H](CC(=O)O)C(=O)O; Ac4c(3-oxa) = NC1(C(=O)O)COC1; NMeL = CN[C@@H](CC(C)C)C(=O)O; NMeAbu = CC[C@H](NC)C(=O)O; Morpholide = C1CN(*)CCO1; NMeA = CN[C@@H](C)C(=O)O; Ac5c = NC1(C(=O)O)CCCC1; Aze = O=C(O)[C@@H]1CCN1; Ac4c = NC1(C(=O)O)CCC1; Sar = CNCC(=O)O
How the values were obtained:
[1] = target: GDP-bound KRAS wild-type protein (Homo sapiens, UniProt P01116); assay: Binding to KRAS by surface plasmon resonance (SPR), Single Cycle Kinetics; conditions: GDP-bound KRAS wild-type protein, read-out: KRAS KD
Chain of GDP-bound KRAS wild-type protein (P01116 whole entry): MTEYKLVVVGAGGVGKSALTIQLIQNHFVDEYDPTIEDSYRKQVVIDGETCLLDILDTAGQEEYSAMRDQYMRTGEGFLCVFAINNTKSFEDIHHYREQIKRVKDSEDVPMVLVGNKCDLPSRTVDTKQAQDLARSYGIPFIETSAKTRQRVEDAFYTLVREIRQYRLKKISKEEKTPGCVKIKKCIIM

[2] = target: GDP-bound NRAS wild-type protein (Homo sapiens, UniProt P01111); assay: Binding to NRAS by surface plasmon resonance (SPR), Single Cycle Kinetics; conditions: for NRAS/KRAS (ratio of KD value for NRAS to KD value for KRAS) / NRAS/KRAS (ratio of KD value with respect to NRAS to KD value with respect to KRAS): SPR, GDP-bound NRAS wild-type protein vs GDP-bound KRAS wild-type protein; for NRAS/KRAS (ratio of KD value with respect to GDP-bound NRAS wild-type protein to KD value with respect to KRAS): SPR KD ratio NRAS/KRAS, class symbols
Chain of GDP-bound NRAS wild-type protein (P01111 whole entry): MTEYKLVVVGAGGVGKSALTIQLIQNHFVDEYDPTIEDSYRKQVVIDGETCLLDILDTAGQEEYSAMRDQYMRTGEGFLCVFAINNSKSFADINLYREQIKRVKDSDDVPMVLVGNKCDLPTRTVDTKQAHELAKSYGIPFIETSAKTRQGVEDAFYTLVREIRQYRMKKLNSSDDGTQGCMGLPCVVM

[3] = target: GDP-bound HRAS wild-type protein (Homo sapiens, UniProt P01112); assay: Binding to HRAS by surface plasmon resonance (SPR), Single Cycle Kinetics; conditions: for HRAS/KRAS (ratio of KD value for HRAS to KD value for KRAS) / HRAS/KRAS (ratio of KD value with respect to HRAS to KD value with respect to KRAS): SPR, GDP-bound HRAS wild-type protein vs GDP-bound KRAS wild-type protein; for HRAS/KRAS (ratio of KD value with respect to GDP-bound HRAS wild-type protein to KD value with respect to KRAS): SPR KD ratio HRAS/KRAS, class symbols
Chain of GDP-bound HRAS wild-type protein (P01112 whole entry): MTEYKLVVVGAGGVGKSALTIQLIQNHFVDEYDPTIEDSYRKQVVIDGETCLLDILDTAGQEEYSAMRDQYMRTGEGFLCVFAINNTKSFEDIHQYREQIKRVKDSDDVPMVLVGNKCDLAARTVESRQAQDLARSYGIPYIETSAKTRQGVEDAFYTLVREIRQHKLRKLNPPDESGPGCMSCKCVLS

[4] = SPR Single Cycle Kinetics, 1:1 binding model

| Structure (SMILES) | pKd [1, 4] | NRAS/KRAS (ratio of KD value for NRAS to KD value for KRAS) [2] | HRAS/KRAS (ratio of KD value for HRAS to KD value for KRAS) [3] | NRAS/KRAS (ratio of KD value with respect to GDP-bound NRAS wild-type protein to KD value with respect to KRAS) [2] | HRAS/KRAS (ratio of KD value with respect to GDP-bound HRAS wild-type protein to KD value with respect to KRAS) [3] | pKd ([1]; SPR, Single Cycle Kinetics) | NRAS/KRAS (ratio of KD value with respect to NRAS to KD value with respect to KRAS) [2] | HRAS/KRAS (ratio of KD value with respect to HRAS to KD value with respect to KRAS) [3] |
| --- | --- | --- | --- | --- | --- | --- | --- | --- |
| CCCN1C(=O)CN(C)C(=O)CN(C)C(=O)[C@H]([C@@H](C)CC)NC(=O)[C@H](CC(C)C)N(C)C(=O)C[C@@H](C(=O)N2CCOCC2)NC(=O)[C@H](C2CCCC2)N(C)C(=O)C2(CCC2)NC(=O)[C@@H]2C[C@@H](OCC)CN2C(=O)[C@H](CCc2ccc(C(F)(F)F)c(Cl)c2)NC(=O)CN(C)C(=O)[C@@H]1Cc1ccc(C(F)(F)F)cc1 [PP0324] ([NMeL]I[Sar][Sar][NPrPhe(4-CF3)][Sar][hPhe(3-Cl-4-CF3)][Hyp](Et)[Ac4c][NMeGly(cPent)]D-Morpholide; lactam N-11) | 9.39 | B (a compound having 3 or more and less than 10 is denoted as B) | B (a compound having 3 or more and less than 10 is denoted as B) | – | – | – | – | – |
| CCO[C@@H]1C[C@H]2C(=O)NC3(CCC3)C(=O)N(C)[C@@H](CC(C)(C)C)C(=O)N(C)[C@H](C(=O)N3CCCC3)CC(=O)N(C)[C@@H](CC)C(=O)N[C@@H]([C@@H](C)CC)C(=O)N(C)CC(=O)N(C)[C@H]3C/C=C\CCN(C3=O)[C@@H](CC3CCCCC3)C(=O)N(C)CC(=O)N[C@@H](CCc3cc(F)c(C(F)(F)F)c(F)c3)C(=O)N2C1 [PP2772] | 9.37 | – | – | B (a compound having 3 or more and less than 10 is denoted as B) | B (a compound having 3 or more and less than 10 is denoted as B) | – | – | – |
| CCO[C@@H]1C[C@H]2C(=O)NC3(CCC3)C(=O)N(C)[C@@H](C3CCCC3)C(=O)N(C)[C@H](C(=O)N3CCOCC3)CC(=O)N(CC)[C@@H](CC(C)C)C(=O)N[C@@H]([C@@H](C)CC)C(=O)N(C)CC(=O)N(C)[C@H]3CC(C)=CCN(C3=O)[C@@H](Cc3ccc(C(F)(F)F)cc3)C(=O)N(C)CC(=O)N[C@@H](CCc3cc(F)c(C(F)(F)F)c(F)c3)C(=O)N2C1 [PP1044] | – | C (A compound having a KD ratio of 0.1 or more and less than 3 is denoted as C) | C (A compound having a KD ratio of 0.1 or more and less than 3 is denoted as C) | – | – | 8.74 | – | – |
| CCC[C@H]1C(=O)N[C@@H]([C@@H](C)CC)C(=O)N(C)CC(=O)N(C)[C@H]2C/C=C\CCN(C2=O)[C@@H](Cc2ccc(C(F)(F)F)cc2)C(=O)N(C)CC(=O)N[C@@H](CCc2ccc(Cl)c(Cl)c2)C(=O)N2C[C@H](OCC)C[C@H]2C(=O)NC2(CC(C)(C)C2)C(=O)N(C)[C@@H](CC2CC2)C(=O)N(C)[C@H](C(=O)N(C)C)CC(=O)N1C [PP2811] | 9.09 | – | – | A (a compound having 10 or more and less than 20 is denoted as A) | A (a compound having 10 or more and less than 20 is denoted as A) | – | – | – |
| CCCN1C(=O)[C@@H]2CCN2C(=O)[C@H](C)N(C)C(=O)[C@H]([C@@H](C)CC)NC(=O)[C@H](CC)N(C)C(=O)C[C@@H](C(=O)N2CCOCC2)N(C)C(=O)[C@H](C2CCCC2)N(C)C(=O)C2(CCCC2)NC(=O)[C@@H]2CC(F)(F)CN2C(=O)[C@H](CCc2ccc(C(F)(F)F)c(Cl)c2)NC(=O)CN(C)C(=O)[C@@H]1Cc1ccc(C(F)(F)F)cc1 [PP0206] ([NMeAbu]I[NMeA][Aze][NPrPhe(4-CF3)][Sar][hPhe(3-Cl-4-CF3)][Pro(4,4-F2)][Ac5c][NMeGly(cPent)][NMeD]-Morpholide; lactam N-11) | 10.15 | C (A compound having a KD ratio of 0.1 or more and less than 3 is denoted as C) | B (a compound having 3 or more and less than 10 is denoted as B) | – | – | – | – | – |
| CCO[C@@H]1C[C@H]2C(=O)NC3(CCC3)C(=O)N(C)[C@@H](C3CCCC3)C(=O)N(C)[C@H](C(=O)N(C)C)CC(=O)N(C)[C@@H](CC)C(=O)N[C@@H]([C@@H](C)CC)C(=O)N3CC[C@H]3C(=O)N(C)[C@H]3CC(C)=CCN(C3=O)[C@@H](Cc3ccc(C(F)(F)F)cc3)C(=O)N(C)CC(=O)N[C@@H](CCc3cc(F)c(C(F)(F)F)c(F)c3)C(=O)N2C1 [PP1035] | – | C (A compound having a KD ratio of 0.1 or more and less than 3 is denoted as C) | C (A compound having a KD ratio of 0.1 or more and less than 3 is denoted as C) | – | – | 9.28 | – | – |
| CCC[C@H]1C(=O)N[C@@H]([C@@H](C)CC)C(=O)N(C)CC(=O)N(C)[C@H]2C/C=C\CCN(C2=O)[C@@H](Cc2ccc(C(F)(F)F)cc2)C(=O)N(C)CC(=O)N[C@@H](CCc2ccc(Cl)c(OC)c2)C(=O)N2C[C@H](OCC)C[C@H]2C(=O)NC2(CC(C)(C)C2)C(=O)N(C)[C@@H](C2CCCC2)C(=O)N(C)[C@H](C(=O)N(C)C)CC(=O)N1C [PP2788] | 9.35 | – | – | A (a compound having 10 or more and less than 20 is denoted as A) | A (a compound having 10 or more and less than 20 is denoted as A) | – | – | – |
| CC[C@H](C)[C@@H]1NC(=O)[C@H](CC(C)C)N(CC)C(=O)C[C@@H](C(=O)N2CCOCC2)N(C)C(=O)[C@H](C2CCCC2)N(C)C(=O)C2(CCCC2)NC(=O)[C@@H]2CCCN2C(=O)[C@H](CCc2cc(F)c(C(F)(F)F)c(F)c2)NC(=O)CN(C)C(=O)[C@H](Cc2ccc(C(F)(F)F)cc2)N2CCCCC[C@@H](C2=O)N(C)C(=O)CN(C)C1=O [PP0513] | 8.21 | – | – | – | – | – | B (a compound having 3 or more and less than 10 is denoted as B) | B (a compound having 3 or more and less than 10 is denoted as B) |
| CCCN1C(=O)[C@@H]2CCN2C(=O)CN(C)C(=O)[C@H]([C@@H](C)CC)NC(=O)[C@H](CC(C)C)N(C)C(=O)C[C@@H](C(=O)N2CCOCC2)N(C)C(=O)[C@H](C2CCCC2)N(C)C(=O)C2(COC2)NC(=O)[C@@H]2CCCN2C(=O)[C@H](CCc2cc(F)c(C(F)(F)F)c(F)c2)NC(=O)CN(C)C(=O)[C@@H]1Cc1ccc(C(F)(F)F)cc1 [PP0801] ([NMeL]I[Sar][Aze][NPrPhe(4-CF3)][Sar][hPhe(3,5-F2-4-CF3)]P[Ac4c(3-oxa)][NMeGly(cPent)][NMeD]-Morpholide; lactam N-11) | 9.35 | – | – | – | – | – | C (A compound having a KD ratio of 0.1 or more and less than 3 is denoted as C) | B (a compound having 3 or more and less than 10 is denoted as B) |
| CCCN1C(=O)CN(C)C(=O)CNC(=O)[C@H]([C@@H](C)CC)NC(=O)[C@H](CC(C)C)N(C)C(=O)C[C@@H](C(=O)N2CCOCC2)N(C)C(=O)[C@H](C2CCCC2)N(C)C(=O)C2(CCCC2)NC(=O)[C@@H]2CCCN2C(=O)[C@H](CCc2ccc(C(F)(F)F)c(Cl)c2)NC(=O)CN(C)C(=O)[C@@H]1Cc1ccc(C(F)(F)F)cc1 [PP0155] ([NMeL]IG[Sar][NPrPhe(4-CF3)][Sar][hPhe(3-Cl-4-CF3)]P[Ac5c][NMeGly(cPent)][NMeD]-Morpholide; lactam N-11) | 9.74 | B (a compound having 3 or more and less than 10 is denoted as B) | C (A compound having a KD ratio of 0.1 or more and less than 3 is denoted as C) | – | – | – | – | – |
| CCO[C@@H]1C[C@H]2C(=O)NC3(CCC3)C(=O)N(C)[C@@H](C3CCCC3)C(=O)N(C)[C@H](C(=O)N3CCOCC3)CC(=O)N(C)[C@@H](COC)C(=O)N[C@@H]([C@@H](C)CC)C(=O)NCC(=O)N(C)[C@H]3CCCCCN(C3=O)[C@@H](Cc3ccc(C(F)(F)F)cc3)C(=O)N(C)CC(=O)N[C@@H](CCc3cc(F)c(C(F)(F)F)c(F)c3)C(=O)N2C1 [PP0858] | – | B (a compound having 3 or more and less than 10 is denoted as B) | B (a compound having 3 or more and less than 10 is denoted as B) | – | – | 9.18 | – | – |
| CCO[C@@H]1C[C@H]2C(=O)NC3(CC(C)(C)C3)C(=O)N(C)[C@@H](C(CC)CC)C(=O)N(C)[C@H](C(=O)N(C)C)CC(=O)N(C)[C@@H](CC3CCC3)C(=O)N[C@@H]([C@@H](C)CC)C(=O)N(C)CC(=O)N(C)[C@H]3C/C=C\CCN(C3=O)[C@@H](Cc3ccc(C)cc3)C(=O)N(C)CC(=O)N[C@@H](CCc3ccc(Cl)c(Cl)c3)C(=O)N2C1 [PP2120] | – | AA (a compound having 20 or more is denoted as AA) | A (a compound having 10 or more and less than 20 is denoted as A) | – | – | 9.04 | – | – |
| CCO[C@@H]1C[C@H]2C(=O)NC3(CCCC3)C(=O)N(C)[C@@H](C3CCCC3)C(=O)N(C)[C@H](C(=O)N(C)C)CC(=O)N(C)[C@@H](C)C(=O)N[C@@H]([C@@H](C)CC)C(=O)N(C)CC(=O)N(C)[C@H]3CCCCCN(C3=O)[C@@H](Cc3ccc(C(F)(F)F)cc3)C(=O)N(C)CC(=O)N[C@@H](CCc3cc(F)c(C(F)(F)F)c(F)c3)C(=O)N2C1 [PP0475] | 9.34 | – | – | – | – | – | B (a compound having 3 or more and less than 10 is denoted as B) | B (a compound having 3 or more and less than 10 is denoted as B) |

From US20240158446A1, “CYCLIC COMPOUND HAVING SELECTIVE INHIBITORY ACTION ON KRAS OVER HRAS AND NRAS” (CHUGAI SEIYAKU KABUSHIKI KAISHA, priority 2021, published 2024)
